For ten compounds, IC50 results are on record in patent US20260200928A1, “THERAPEUTIC COMPOUNDS” (Sanofi, priority 2022, published 2026).

The IC50 is the concentration at which inhibition is half-maximal. Read a low IC50 as inhibition by little substance.

In the assay the target is T1, human IL-17A (Homo sapiens, UniProt Q16552).
T1 construct: purchased R&D Systems 7955-IL/CF
T1 sequence (Q16552 24-155): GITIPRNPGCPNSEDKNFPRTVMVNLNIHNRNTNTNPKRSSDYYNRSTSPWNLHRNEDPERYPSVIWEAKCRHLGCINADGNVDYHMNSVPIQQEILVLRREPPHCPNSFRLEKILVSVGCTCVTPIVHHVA
Nature of the assay: IL-17A AlphaLISA competition assay (block of IL-17A binding to its receptor IL-17RA). Conditions: mean IC50 (n≥2), block of IL-17A binding to IL-17RA. The gist of the method:
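Bead-based AlphaLISA competition in PBS with 0.05% Tween-20 and 0.1% BSA: compound first meets human IL-17A (7.5 nM stock) for 30 min, then IL-17RA/Fc (5 nM stock) for 90 min, all at room temperature, before acceptor/donor bead capture. IC50 fitted 4-parameter, DMSO and 4 μM reference inhibitor as controls; at least duplicate.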
(In general: In Alpha technology, singlet oxygen from a donor bead excites a nearby acceptor bead.)
Consider `C[C@@H]1CNC(=O)N1Cc1ccnc(NC(=O)[C@@H](NC(=O)OC(C)(C)C)[C@H]2CC[C@H](C)CC2)c1` [Example 29, Tert-butyl ((S)-2-((4-(((R)-5-methyl-2-oxoimidazolidin-1-yl)methyl)pyridin-2-yl)amino)-1-((1r,4S)-4-methylcyclohexyl)-2-oxoethyl)carbamate], for which the IC50 was found to be 428 nM.

On to `COC[C@H](c1ccnc(NC(=O)C(NC(=O)c2nocc2OCC(F)F)C2CCC(F)CC2)c1)N1C[C@@H](C(F)(F)F)NC1=O` (single isomer, unassigned) [Example 281], for which the IC50 was determined as 117 nM.

`Cn1nccc1C(=O)NC(C(=O)Nc1cc(Cc2ccc(=O)n(C)c2)ccn1)C1CCC(F)(F)CC1` (stereo not shown) [Example 52, N-(1-(4,4-difluorocyclohexyl)-2-((4-((1-methyl-6-oxo-1,6-dihydro-pyridin-3-yl)methyl)pyridin-2-yl)amino)-2-oxoethyl)-1-methyl-1H-pyrazole-5-carboxamide] registered an IC50 of 23900 nM.

`CCn1nccc1C(=O)NC(C(=O)Nc1cc(C(COC)NC(=O)CCC(F)(F)F)ccn1)C1CCC(C)CC1` [Example 244, 1-ethyl-N-((1S)-2-((4-(2-methoxy-1-(4,4,4-trifluorobutanamido)ethyl)pyridin-2-yl)amino)-1-((1r,4S)-4-methylcyclohexyl)-2-oxoethyl)-1H-pyrazole-5-carboxamide] showed an IC50 of 47 nM. Compound `C[C@H]1CC[C@H]([C@H](NC(=O)c2nonc2C2CC2)C(=O)Nc2cc(C(CO)N3C[C@@H](C(F)(F)F)NC3=O)ccn2)CC1` (single isomer, unassigned) [Example 234, 4-Cyclopropyl-N-((1S)-2-((4-((R or S)-2-hydroxy-1-((S)-2-oxo-4-(trifluoromethyl)imidazolidin-1-yl)ethyl)pyridin-2-yl)amino)-1-((1r,4S)-4-methylcyclohexyl)-2-oxoethyl)-1,2,5-oxadiazole-3-carboxamide] returned an IC50 of 39 nM. For `Cn1nccc1C(=O)N[C@@H](COC(C)(C)C(F)(F)F)C(=O)Nc1cc(CN2C[C@@H](C(F)(F)F)NC2=O)ccn1` [Example 275, 1-methyl-N-((S)-1-oxo-1-((4-(((S)-2-oxo-4-(trifluoromethyl)imidazolidin-1-yl)methyl)pyridin-2-yl)amino)-3-((1,1,1-trifluoro-2-methylpropan-2-yl)oxy)propan-2-yl)-1H-pyrazole-5-carboxamide], the IC50 worked out at 946 nM.

`CC[C@H](c1ccnc(NC(=O)[C@@H](NC(=O)c2nonc2C2CC2)C2CCC(F)(F)CC2)c1)N1C[C@@H](C(F)(F)F)NC1=O` [Example 212, 4-cyclopropyl-N-((S)-1-(4,4-difluorocyclohexyl)-2-oxo-2-((4-((R)-1-((S)-2-oxo-4-(trifluoromethyl)imidazolidin-1-yl)propyl)pyridin-2-yl)amino)ethyl)-1,2,5-oxadiazole-3-carboxamide]: the IC50 is 23 nM. In the case of `CCc1conc1C(=O)N[C@H](C(=O)Nc1cc([C@@H](COC)N2C[C@@H](C(F)(F)F)NC2=O)ccn1)C1CCCC(F)(F)C1` (single isomer, unassigned) [Example 304] it was 26 nM; in that of `CCn1nccc1C(=O)N[C@H](C(=O)Nc1cc([C@@H](C)N2C[C@@H](C(F)(F)F)NC2=O)ccn1)[C@H]1CC[C@H](C)CC1` [Example 239, 1-ethyl-N-((S)-1-((1r,4S)-4-methylcyclohexyl)-2-oxo-2-((4-((R)-1-((S)-2-oxo-4-(trifluoromethyl)imidazolidin-1-yl)ethyl)pyridin-2-yl)amino)ethyl)-1H-pyrazole-5-carboxamide], 16 nM. With `CCn1nccc1C(=O)N[C@@H](COC(C)(C)C(F)(F)F)C(=O)Nc1cc([C@@H](COC)N2C[C@@H](C(F)(F)F)NC2=O)ccn1` [Example 270, 1-ethyl-N-((S)-1-((4-((S)-2-methoxy-1-((S)-2-oxo-4-(trifluoromethyl)imidazolidin-1-yl)ethyl)pyridin-2-yl)amino)-1-oxo-3-((1,1,1-trifluoro-2-methylpropan-2-yl)oxy)propan-2-yl)-1H-pyrazole-5-carboxamide] the figure was 29 nM.
